Reference: US20240083861A1, “HSD17B13 INHIBITORS AND USES THEREOF” (FL2022-001, Inc., priority 2020, published 2024)

Molecular target: T1, Recombinant human HSD17B13 enzyme (Homo sapiens, UniProt Q7Z5P4)
T1 sequence (Q7Z5P4 20-300): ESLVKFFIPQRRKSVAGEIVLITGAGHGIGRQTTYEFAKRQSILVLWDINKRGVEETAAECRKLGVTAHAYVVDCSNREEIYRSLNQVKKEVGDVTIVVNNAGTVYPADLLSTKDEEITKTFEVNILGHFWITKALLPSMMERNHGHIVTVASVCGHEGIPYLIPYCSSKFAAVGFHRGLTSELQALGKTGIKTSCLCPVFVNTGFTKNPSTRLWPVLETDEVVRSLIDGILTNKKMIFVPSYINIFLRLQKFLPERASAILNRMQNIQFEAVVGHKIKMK
Experiment: HSD17b13 NAD(P)H-Glo biochemical assay
Conditions: 50 uM estradiol, 1 mM NAD+, NAD(P)H-Glo luminescence; read-out: HSD17β13 IC50
Description: Example B-1: HSD17b13 NAD(P)H-Glo Biochemical Assay
Recombinant human HSD17B13 enzyme. Substrate: estradiol (Sigma β-Estradiol E8875), 100 mM in DMSO. Cofactor: NAD+ Grade I free acid (Sigma 10127965001), 20 mM in H2O. Assay buffer final concentration: 20 mM Tris pH7.4 with 0.002% Tween-20 and 0.02% BSA. Assay performed in 384 well solid bottom plate (Corning 3570). Enzymatic activity detected by NAD(P)H-Glo™ Detection System (Promega G9062).
Inhibitor compounds were serially diluted in DMSO and then further diluted in assay buffer to a 10× concentration consisting of 1% DMSO.
HSD17b13 enzyme was diluted in 1× assay buffer to the desired enzyme concentration based on the specific activity of the enzyme lot. 20 uL of diluted enzyme was added to each well along with 2.5 uL of 10× inhibitor solution. Assay plate was incubated at RT for 20 minutes, and then 2.5 uL of a 10× substrate/cofactor mix was added to each well for a final concentration of 50 uM estradiol and 1 mM NAD+. Assay plate was incubated at 37° C. for 3 hours. NAD(P)H-Glo™ Detection System reagents were prepared according to manufacturer's specifications, and 25 uL was added to each well. After incubating for 1 hour at RT, luminescence was measured.

| Structure (SMILES) | IC50 [nM] |
| --- | --- |
| COC1CCN(c2cc3c(cn2)c(-c2cc(C(F)(F)F)c(F)c(O)c2F)nn3C)C2(CC2)C1 (stereo not shown) [Compound 9.83, 2,6-Difluoro-3-(6-(7-methoxy-4-azaspiro[2.5]octan-4-yl)-1-methyl-1H-pyrazolo[4,3-c]pyridin-3-yl)-5-(trifluoromethyl)phenol] | < 100 |
| Cn1nc(-c2cc(C(F)(F)F)c(F)c(O)c2F)c2cnc(N3C[C@H]4CC[C@@H](C3)O4)cc21 [Compound 9.90, 3-(6-(cis-8-Oxa-3-azabicyclo[3.2.1]octan-3-yl)-1-methyl-1H-pyrazolo[4,3-c]pyridin-3-yl)-2,6-difluoro-5-(trifluoromethyl)phenol] | < 100 |
| Cn1nc(-c2cc(C(F)(F)F)c(F)c(O)c2F)c2cc(F)c(N3CCCOCC34CC4)nc21 [Compound 9.105, 2,6-Difluoro-3-(5-fluoro-1-methyl-6-(8-oxa-4-azaspiro[2.6]nonan-4-yl)-1H-pyrazolo[3,4-b]pyridin-3-yl)-5-(trifluoromethyl)phenol] | < 100 |
| Oc1c(F)c(-c2n[nH]c3cc(N4CCOCC45CC5)ncc23)cc(C(F)(F)F)c1F [Compound 11.03, 3-(6-(7-Oxa-4-azaspiro[2.5]octan-4-yl)-1H-pyrazolo[4,3-c]pyridin-3-yl)-2,6-difluoro-5-(trifluoromethyl)phenol] | < 100 |
| CS(=O)(=O)N1CCN(c2cc3[nH]nc(-c4cc(C(F)(F)F)cc(O)c4F)c3cn2)CC1 [Compound 11.02, 2-Fluoro-3-(6-(4-(methylsulfonyl)piperazin-1-yl)-1H-pyrazolo[4,3-c]pyridin-3-yl)-5-(trifluoromethyl)phenol] | 100 to 1000 |
| CN(c1cc2c(cn1)c(-c1cc(C(F)(F)F)c(F)c(O)c1F)nn2C)C1CCOCC1 [Compound 9.17, 2,6-Difluoro-3-(1-methyl-6-(methyl(tetrahydro-2H-pyran-4-yl)amino)-1H-pyrazolo[4,3-c]pyridin-3-yl)-5-(trifluoromethyl)phenol] | < 100 |
| Cn1nc(-c2cc(C(F)(F)F)c(F)c(O)c2F)c2cnc(N3CCOC4(CCC4)C3)cc21 [Compound 9.78, 2,6-Difluoro-3-(1-methyl-6-(5-oxa-8-azaspiro[3.5]nonan-8-yl)-1H-pyrazolo[4,3-c]pyridin-3-yl)-5-(trifluoromethyl)phenol] | < 100 |
| Cn1nc(-c2cc(C(F)(F)F)c(F)c(O)c2F)c2cnc(N3CCNC(=O)C34CC4)cc21 [Compound 9.43, 4-(3-(2,4-Difluoro-3-hydroxy-5-(trifluoromethyl)phenyl)-1-methyl-1H-pyrazolo[4,3-c]pyridin-6-yl)-4,7-diazaspiro[2.5]octan-8-one] | < 100 |
| Cn1nc(-c2cc(C(F)(F)F)c(F)c(O)c2F)c2ncc(N3CCN(S(C)(=O)=O)CC3)nc21 [Compound 12, 2,6-Difluoro-3-(1-methyl-6-(4-(methylsulfonyl)piperazin-1-yl)-1H-pyrazolo[3,4-b]pyrazin-3-yl)-5-(trifluoromethyl)phenol] | 100 to 1000 |
| Cn1nc(-c2cc(C(F)(F)F)c(F)c(O)c2F)c2cc(F)c(N3CCN(S(C)(=O)=O)CC34CC4)cc21 [Compound 9.117, 2,6-Difluoro-3-(5-fluoro-1-methyl-6-(7-(methylsulfonyl)-4,7-diazaspiro[2.5]octan-4-yl)-1H-indazol-3-yl)-5-(trifluoromethyl)phenol] | < 100 |
| Cn1nc(-c2cc(C(F)(F)F)c(F)c(O)c2F)c2cnc(N3CCS(=O)(=O)CC34CCC4)cc21 [Compound 9.124, 5-(3-(2,4-Difluoro-3-hydroxy-5-(trifluoromethyl)phenyl)-1-methyl-1H-pyrazolo[4,3-c]pyridin-6-yl)-8-thia-5-azaspiro[3.5]nonane 8,8-dioxide] | < 100 |
| Cn1nc(-c2cc(C(F)(F)F)c(F)c(O)c2F)c2cnc(N3CCNCC34CC4)cc21 [Compound 9.111, 2,6-Difluoro-3-(1-methyl-6-(4,7-diazaspiro[2.5]octan-4-yl)-1H-pyrazolo[4,3-c]pyridin-3-yl)-5-(trifluoromethyl)phenol] | < 100 |
| Cn1nc(-c2cc(C(F)(F)F)c(F)c(O)c2F)c2cnc(N3CCOCC3(C)C)cc21 [Compound 9.31, 3-(6-(3,3-Dimethylmorpholino)-1-methyl-1H-pyrazolo[4,3-c]pyridine-3-yl)-2,6-difluoro-5-(trifluoromethyl)phenol] | < 100 |

The remaining lines, values ahead:

| IC50 [nM] | Structure (SMILES) |
| --- | --- |
| < 100 | Cn1nc(-c2cc(C(F)(F)F)c(F)c(O)c2F)c2cnc(N3CCC(C)(C)CC3)nc21 [Compound 18.108, 3-(6-(4,4-Dimethylpiperidin-1-yl)-1-methyl-1H-pyrazolo[3,4-d]pyrimidin-3-yl)-2,6-difluoro-5-(trifluoromethyl)phenol] |
| < 100 | CCC1(O)CCN(c2ncc3c(-c4cc(C(F)(F)F)c(F)c(O)c4F)nn(C)c3n2)CC1 [Compound 18.66, 1-(3-(2,4-Difluoro-3-hydroxy-5-(trifluoromethyl)phenyl)-1-methyl-1H-pyrazolo[3,4-d]pyrimidin-6-yl)-4-ethylpiperidin-4-ol] |
| 100 to 1000 | Cn1nc(-c2cc(C(F)(F)F)c(F)c(O)c2F)c2cnc(N3CC4CC(C3)N4S(C)(=O)=O)nc21 [Compound 18.74, 2,6-Difluoro-3-(1-methyl-6-(6-(methylsulfony1)-3,6-diazabicyclo[3.1.1]heptan-3-yl)-1H-pyrazolo[3,4-d]pyrimidin-3-y1)-5-(trifluoromethyl)phenol] |
| 100 to 1000 | Cc1nnc(C2CN(c3ncc4c(-c5cc(C(F)(F)F)c(F)c(O)c5F)nn(C)c4n3)CCO2)o1 (stereo not shown) [Compound 18.52, 2,6-Difluoro-3-(1-methyl-6-(2-(5-methyl-1,3,4-oxadiazol-2-y1)morpholino)-1H-pyrazolo[3,4-d]pyrimidin-3-y1)-5-(trifluoromethyl)phenol] |
| < 100 | Cn1nc(-c2cc(C(F)(F)F)c(F)c(O)c2F)c2cnc(N3CC4CCC(C3)N4S(C)(=O)=O)nc21 [Compound 18.111, 2,6-Difluoro-3-(1-methyl-6-(8-(methylsulfony1)-3,8-diazabicyclo[3.2.1]octan-3-yl)-1H-pyrazolo[3,4-d]pyrimidin-3-y1)-5-(trifluoromethyl)phenol] |
| < 100 | CN1CC2(CCN(c3ncc4c(-c5cc(C(F)(F)F)c(F)c(O)c5F)nn(C)c4n3)CC2)OC1=O [Compound 18.89, 8-(3-(2,4-Difluoro-3-hydroxy-5-(trifluoromethyl)phenyl)-1-methyl-1H-pyrazolo[3,4-d]pyrimidin-6-yl)-3-methyl-1-oxa-3,8-diazaspiro[4.5]decan-2-one] |
| < 100 | CC(C)C(=O)NC1CCN(c2ncc3c(-c4cc(C(F)(F)F)c(F)c(O)c4F)nn(C)c3n2)CC1 [Compound 18.27, N-(1-(3-(2,4-Difluoro-3-hydroxy-5-(trifluoromethyl)phenyl)-1-methyl-1H-pyrazolo[3,4-d]pyrimidin-6-y1)piperidin-4-yl)isobutyramide] |
| 100 to 1000 | Cn1nc(-c2cc(C(F)(F)F)c(F)c(O)c2F)c2cnc(N3CC4(CCCNC4=O)C3)nc21 [Compound 18.12, 2-(3-(2,4-Difluoro-3-hydroxy-5-(trifluoromethyl)phenyl)-1-methyl-1H-pyrazolo[3,4-d]pyrimidin-6-yl)-2,6-diazaspiro[3.5]nonan-5-one] |
| 100 to 1000 | Cn1nc(-c2cc(C(F)(F)F)c(F)c(O)c2F)c2cnc(N3CCC(N4CCOCC4)CC3)nc21 [Compound 18.60, 2,6-Difluoro-3-(1-methyl-6-(4-morpholinopiperidin-1-yl)-1H-pyrazolo[3,4-d]pyrimidin-3-y1)-5-(trifluoromethyl)phenol] |
